Assay results taken from patent US20160046618A1, “Cyclopropyl Fused Thiazin-2-Amine Compounds as Beta-Secretase Inhibitors and Methods of Use” (AMGEN INC., priority 2014, published 2016).
Read-outs that look alike come from different tables or passages of the source.

Assays:
[1] = test system: Aβ40 in conditioned medium of cells stably expressing Amyloid Precursor Protein (APP); experiment: In vitro BACE-1 cell-based assay (Aβ40 sandwich ELISA); conditions: read-out: IC50 IP (μM) BACE1 cell
How it was run: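 Read-out: time-resolved fluorescence (Streptavidin-Europium) of Aβ40 captured by pAb40 and detected with biotinylated 6E10 from supernatants of APP-stable cells. Cells were exposed to compound for 24 h, 10-point dose response, top dose 100 μM or 10 μM, 0.1% DMSO. IC50 fitted to percent of control.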

human recombinant BACE1 = human recombinant BACE1 (Homo sapiens (Human), UniProt P56817); experiment: In vitro enzymatic BACE1 FRET assay; type: biochemical; conditions: read-out: IC50 IP (μM) BACE1 enzyme
human recombinant BACE1, sequence (P56817 46-501): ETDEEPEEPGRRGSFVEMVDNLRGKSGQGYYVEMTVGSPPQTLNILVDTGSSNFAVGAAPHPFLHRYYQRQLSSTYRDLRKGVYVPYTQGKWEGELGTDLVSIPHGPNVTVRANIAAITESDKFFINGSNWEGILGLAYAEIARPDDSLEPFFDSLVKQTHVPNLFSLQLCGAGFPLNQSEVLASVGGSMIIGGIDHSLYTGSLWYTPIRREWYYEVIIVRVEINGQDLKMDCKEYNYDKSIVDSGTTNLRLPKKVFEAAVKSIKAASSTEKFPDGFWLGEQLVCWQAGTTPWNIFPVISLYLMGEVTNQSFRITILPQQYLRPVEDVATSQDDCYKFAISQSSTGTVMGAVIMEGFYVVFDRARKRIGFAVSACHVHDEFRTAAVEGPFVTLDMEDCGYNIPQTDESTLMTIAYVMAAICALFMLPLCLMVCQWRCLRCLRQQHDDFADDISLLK
How it was run: (§1)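 Tris addition raises the pH to neutral to stop the reaction before fluorescence is measured at 590 nm emission with 488 nm excitation.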

human recombinant BACE2 = human recombinant BACE2 (Homo sapiens (Human), UniProt Q9Y5Z0); experiment: In vitro enzymatic BACE2 FRET assay; type: biochemical; conditions: read-out: IC50 IP (μM) BACE2 enzyme
human recombinant BACE2, sequence (Q9Y5Z0 63-518): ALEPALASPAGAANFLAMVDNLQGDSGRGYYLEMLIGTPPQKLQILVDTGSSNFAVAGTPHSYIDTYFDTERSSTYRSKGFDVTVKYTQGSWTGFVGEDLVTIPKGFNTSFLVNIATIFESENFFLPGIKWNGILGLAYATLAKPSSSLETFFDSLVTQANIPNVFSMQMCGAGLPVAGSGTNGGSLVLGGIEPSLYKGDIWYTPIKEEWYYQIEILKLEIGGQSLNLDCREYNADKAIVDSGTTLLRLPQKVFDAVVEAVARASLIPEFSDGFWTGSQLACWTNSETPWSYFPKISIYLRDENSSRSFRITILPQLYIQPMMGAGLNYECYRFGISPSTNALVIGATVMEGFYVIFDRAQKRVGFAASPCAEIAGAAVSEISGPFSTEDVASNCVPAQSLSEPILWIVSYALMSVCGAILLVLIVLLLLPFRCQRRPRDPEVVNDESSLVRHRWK
How it was run: as §1

Recombinant Cat D = Recombinant Cat D (Homo sapiens (Human), UniProt P07339); experiment: In vitro enzymatic Cathepsin D (Cat D) FRET assay; type: biochemical; conditions: read-out: IC50 IP (μM) CatD
Recombinant Cat D, sequence (P07339 65-412): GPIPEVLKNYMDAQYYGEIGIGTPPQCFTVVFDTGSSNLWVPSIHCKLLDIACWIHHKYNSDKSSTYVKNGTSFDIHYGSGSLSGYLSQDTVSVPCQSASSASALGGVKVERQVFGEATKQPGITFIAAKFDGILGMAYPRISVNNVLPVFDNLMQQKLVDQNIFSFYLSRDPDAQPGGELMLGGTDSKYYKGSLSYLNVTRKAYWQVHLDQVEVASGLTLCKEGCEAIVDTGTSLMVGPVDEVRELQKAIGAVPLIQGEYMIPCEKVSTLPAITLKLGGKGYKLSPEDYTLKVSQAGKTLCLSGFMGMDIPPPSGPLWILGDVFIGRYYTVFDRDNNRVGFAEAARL
How it was run: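 Assay pH is 3.5 (0.05 M citrate, 5 mM CHAPS, 10% DMSO final) with Cat D from CHO cells. A 20 nM quenched peptide substrate is cleaved over one hour; the reaction is ended with Tris and read by fluorescence (ex 500, em 580 nm).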

IC50 [1]	IC50 (human recombinant BACE1)	IC50 (human recombinant BACE2)	IC50 (Recombinant Cat D)	IC50 ([1]; BACE1 cell-based assay)	IC50 (human recombinant BACE1; BACE1 FRET enzyme assay)	IC50 (human recombinant BACE2; BACE2 FRET enzyme assay)	IC50 (Recombinant Cat D; Cathepsin D FRET enzyme assay)	Compound
0.026 µM	0.0208 µM	0.00465 µM	67 µM					COc1ncc(NC(=O)c2ccc(Cl)cn2)cc1[C@@]1(C)N=C(N)S[C@@]2(C(F)F)C[C@@H]12 [Example 990, N-(5-((1S,5S,6S)-3-amino-1-(difluoromethyl)-5-methyl-2-thia-4-azabicyclo[4.1.0]hept-3-en-5-yl)-6-methoxy-3-pyridinyl)-5-chloro-2-pyridinecarboxamide]
0.0197 µM	0.0113 µM	0.148 µM	710 µM					C#C[C@H](C)Oc1cnc(C(=O)Nc2ccc(F)c([C@@]3(C)N=C(N)S[C@@]4(COC)C[C@H]43)c2)c(C)n1 [Example 621, N-(3-((1S,5S,6S)-3-amino-1-(methoxymethyl)-5-methyl-2-thia-4-azabicyclo[4.1.0]hept-3-en-5-yl)-4-fluorophenyl)-3-methyl-5-(((1S)-1-methyl-2-propyn-1-yl)oxy)-2-pyrazinecarboxamide]
0.0028 µM	0.000338 µM	< 0.00203 µM	792 µM					CN(C)C(=O)[C@]12C[C@H]1[C@@](CF)(c1cc(NC(=O)c3ccc(Cl)cn3)ccc1F)N=C(N)S2 [Example 790, (1S,5S,6S)-3-amino-5-(5-(((5-chloro-2-pyridinyl)carbonyl)amino)-2-fluorophenyl)-5-(fluoromethyl)-N,N-dimethyl-2-thia-4-azabicyclo[4.1.0]hept-3-ene-1-carboxamide]
0.259 µM	0.0236 µM	0.342 µM	389 µM					C#C[C@H](C)Oc1cnc(C(=O)Nc2cc(F)c(F)c([C@@]3(C)N=C(N)S[C@@]4(C(F)F)C[C@@H]34)c2)c(C)c1 [Example 647, N-(3-((1S,5S,6S)-3-amino-1-(difluoromethyl)-5-methyl-2-thia-4-azabicyclo[4.1.0]hept-3-en-5-yl)-4,5-difluorophenyl)-3-methyl-5-(((1S)-1-methyl-2-propyn-1-yl)oxy)-2-pyridinecarboxamide]
0.00074 µM	0.00315 µM	0.0575 µM	106 µM					C#CCOc1cnc(C(=O)Nc2cc(F)c(F)c([C@@]3(C)N=C(N)S[C@@]4(CN)C[C@H]43)c2)cn1 [Example 981, N-(3-((1S,5S,6S)-3-amino-1-(aminomethyl)-5-methyl-2-thia-4-azabicyclo[4.1.0]hept-3-en-5-yl)-4,5-difluorophenyl)-5-(prop-2-yn-1-yloxy)pyrazine-2-carboxamide]
0.0519 µM	0.0124 µM	0.703 µM	1010 µM					COC[C@]12C[C@H]1[C@@](C)(c1cc(NC(=O)c3ncc(OCC(F)(F)F)cc3C)cc(F)c1F)N=C(N)S2 [Example 675, N-(3-((1S,5S,6S)-3-amino-1-(methoxymethyl)-5-methyl-2-thia-4-azabicyclo[4.1.0]hept-3-en-5-yl)-4,5-difluorophenyl)-3-methyl-5-(2,2,2-trifluoroethoxy)-2-pyridinecarboxamide]
				0.0056 µM	0.00665 µM	0.0032 µM	3140 µM	C[C@]1(c2cc(NC(=O)c3ccc(Cl)cn3)cnc2F)N=C(N)S[C@@]2(CF)C[C@H]21 [Example 98, N-(5-((1S,5S,6S)-3-amino-1-(fluoromethyl)-5-methyl-2-thia-4-azabicyclo[4.1.0]hept-3-en-5-yl)-6-fluoropyridin-3-yl)-5-chloropicolinamide]
0.0218 µM	0.00209 µM	0.0581 µM	71.9 µM					Cc1cnc(COc2cnc3c(Nc4cc(F)c(F)c([C@@]5(C)N=C(N)S[C@@]6(C(F)F)C[C@@H]56)c4)nccc3n2)o1 [Example 888, N-(3-((1S,5S,6S)-3-amino-1-(difluoromethyl)-5-methyl-2-thia-4-azabicyclo[4.1.0]hept-3-en-5-yl)-4,5-difluorophenyl)-2-((5-methyl-1,3-oxazol-2-yl)methoxy)pyrido[3,4-b]pyrazin-5-amine]
